# Several values for one entry are separate records, joined by “and”; a condition that tells them apart may be missing. Identical values can stand only once. Entries after “also recorded” stand apart in the source; their conditions may differ.
# Legend:
# [1] = system: NRF2 knockout A549 (2-11) tumors; test: Xenograft mouse model, NRF2 knockout A549 (2-11) tumors; assay type: in vivo, athymic nude mice; details: for tumor growth: 16 days
# Procedure: The animal trials presented herein were carried out at Washington Biotech Inc., Simpsonville Maryland, under animal use and care protocol (SOP 505, SOP 520, SOP 522, SOP 1610, SOP1650) approved by the animal care and use committee of Washington Biotechnology Inc. (AAALAC accredited Animal Welfare Assurance number A4192-01). The human xenograft model was established using methodology reported previously. […] et al., Biomed Res. Int. 2015, 1-17 (2015). Female athymic nude mice (Envigo, 5-6 weeks old) were used in this study. Approximately 5×10^6 cells (wild type A549 or homozygous knockout (clonal expansion 2-11)) suspended in PBS with 20% Matrigel were injected subcutaneously into right flank of each mouse. Tumor volume was measured three times a week with a digital caliper once palpable, and calculated using the formula, tumor size=ab^2/2, where 'a' is the larger and 'b' is the smaller of the two dimensions. When tumors grew up to a mean volume of around 100 mm^3, A549 tumor bearing mice or A549-2-11 tumor bearing mice were randomly divided into 7 groups (N=5 for each group) respectively and subject to dose/regimen-finding study. […] Tumor volume and body weight was closely monitored over time. After 16 days, the animals were sacrificed, with tumor removed, weighed and processed for molecular analysis. Mice were euthanized. The data were expressed as mean±SD. Student's t-test and one-way or two-way ANOVA was used to assess the significance of difference. […] A549 xenografts were resected on day 16, snap frozen in liquid nitrogen and stored in -80° C. until usage. All immunofluorescence staining was performed as previously described. Wang et al., Investig. Opthalmology Vis. Sci. 58, 3896 (2017). Briefly, tumors were embedded in Optimum Cutting Temperature (Tissue Tek, Torrance, CA, USA) and 16-μm-thick sections were obtained with a Leica CM3050 cryostat (Leica Microsystems, Buffalo Grove, IL, USA), and mounted on slides. Slides were fixed and incubated with blocking buffer for 1 hour at room temperature. […]
# [2] = system: wild type A549 cells; test: MTS cell proliferation assay after drug exposure, wild type cells; assay type: cell-based, human
# Procedure: (§1) Cell viability was evaluated using the CellTiter 96 Aqueous Non-Radioactive Cell Proliferation Assay (Promega, Madison, WI). A549 cell lines were plated at 2×10^3 cells per well and allowed to culture for 24 hours. The cell media was then aspirated, the cells washed with PBS, then exposed to the MTS reagent for 3 hours. After 3 hours of MTS bio-reduction by proliferating cells, the formazan product's absorbance was measured using a 450 nm filter on an Infinite 2000 PRO microplate reader (Tecan, Mannadorf, Switzerland). Cell viability after drug exposure was evaluated using the CellTiter 96 Aqueous Non-Radioactive Cell Proliferation Assay. A549 cell lines were plated at 2×10^3 cells per well and allowed to culture for 24 hours. The cells were then treated with cisplatin, carboplatin, or a combination of cisplatin and vinorelbine for three days. The cell media was then aspirated, the cells washed with PBS, then exposed to the MTS reagent for 3 hours. After 3 hours of MTS bio-reduction by proliferating cells, the formazan product's absorbance was measured using a 450 nm filter on an Infinite 2000 PRO microplate reader.
# [3] = system: NRF2 knockout A549 cells (2-11); test: MTS cell proliferation assay after drug exposure, NRF2 knockout cells; assay type: cell-based, human; details: 2-11 knockout A549 cells, 72 hours; for chemosensitivity (MTS proliferation): increasing dosages
# Procedure: as §1
# [4] = system: NRF2 gene; test: TIDE indel analysis of bulk sorted eGFP+ A549 cells transfected with pX458 CRISPR/Cas9 constructs; assay type: cell-based, human; details: bulk sorted eGFP+ A549 population, pX458 plasmid
# Procedure: A549 cells were transfected at a concentration of 5×10^5 cells/100 μl in 4 mm gap cuvette (BioExpress, Kaysville, UT, USA). NRF2 targeting pX458 constructs were separately electroporated (250 V. LV, 13 ms pulse length, 2 pulses, 1 s interval) into A549 cells using a Bio-Rad Gene Pulser XCell Electroporation System (Bio-Rad Laboratories, Hercules, CA, USA). Cells were then recovered in 6-well plates with complete growth media at 37° C. for 72 hours prior to sorting. […] Clones were expanded and transferred to larger plates as the individual clones reached confluence, with DNA isolation occurring when cells reached confluence in a six-well plate (1×10^6 cells/mL).
# CRISPR/Cas9 targeted A549 clones were PCR amplified (forward 5′-[…] (SEQ ID NO: 5), reverse 5′-[…] (SEQ ID NO: 6)) using Amplitaq Gold Fast PCR Master Mix (Applied Biosystems, Foster City, CA). Briefly, template DNA, primers, water and master mix were combined and cycled: 95° C. for 10 minutes, (96° C. for 3 s, 60° C. for 3 s, 68° C. for 5 s)×35 cycles, and 72° C. for 10 s. The 402 bp products were purified (Qiagen, Hilden, Germany) and Sanger sequenced using the forward PCR primer. Clonal allelic analyses of individual A549 cell clones were analyzed by the software program, Tracking of Indels by DEcomposition (TIDE), to determine the individual sub-sequences within the multi-peaked breakdown product after CRISPR/Cas9 activity. […]
molecule,measurement,setting,value
N.N.[Cl][Pt][Cl] [cisplatin],tumor growth,"[1]; cisplatin 2 mg/kg tail vein on day 0, 3, 6, 9",proliferation of the implanted cells is arrested; also recorded: smallest tumors
same,Ki67 staining of xenograft tumors,"[1]; cisplatin 2 mg/kg, tumors resected day 16, compared to saline",even lower levels of Ki67
same,concentration up to which a slight increase in cell proliferation is seen,"[2]; wild type A549, 72 hours",up to 3 μM
same,final concentration at which proliferation is adversely affected,"[2]; wild type A549, 72 hours",5 µM and 10 µM
same,response of cell proliferation to drug (MTS),"[2]; wild type A549, increasing dosages, 72 hours",resistant to high dosages of Cisplatin
same,concentration at and above which proliferation is lost,[3],≥ 1 µM
same,chemosensitivity (MTS proliferation),[3],increase in chemosensitivity in a dose-dependent fashion
N.N.O=C([O-])C1(C(=O)[O-])CCC1.[Pt+2] [carboplatin],tumor growth,"[1]; 25 mg/kg carboplatin tail vein on day 0, 3, 6, 9",same reduced proliferation and growth trend described above is reproduced
same,chemosensitivity (MTS proliferation),[3]; listed as Carboplatin,reflected what was observed in the experiments using cisplatin
"5′-UGAUUUAGACGGUAUGCAACAGG (listed as RNA, chemistry not fully specified) [gRNA2]","indels (TIDE), NRF2 disruption",[4],significant amount of indels
"5′-UCGAUGUGACCGGGAAUAUCAGG (listed as RNA, chemistry not fully specified) [gRNA1]","indels (TIDE), NRF2 disruption",[4],significant amount of indels
